Assay results: ChEMBL document CHEMBL1201862, “PubChem BioAssay data set” (2004)
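Cultured in 96-well plates, cells were exposed to test compound for 48 hours across five concentrations. GI50 marks 50% less growth.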 Calls of active or inactive are those of the source. Cut-off read from the data, not from the text of the source: active = GI50 up to about 1.1 µM and inactive = higher.

Legend:
Assay in all cases: NCI tumour cell line growth inhibition, 48 h
786-0 = system: 786-0
A498 = system: A498
A549 = system: A549
ACHN = system: ACHN
BT-549 = system: BT-549
CAKI-1 = system: CAKI-1
CCRF-CEM = system: CCRF-CEM
COLO 205 = system: COLO 205
DU-145 = system: DU-145
HCC 2998 = system: HCC 2998
HCT-116 = system: HCT-116
HCT-15 = system: HCT-15
HL-60 = system: HL-60
HOP-92 = system: HOP-92
HT-29 = system: HT-29
IGROV-1 = system: IGROV-1
K562 = system: K562
KM12 = system: KM12
M14 = system: M14
MDA-MB-231 = system: MDA-MB-231
MDA-MB-435 = system: MDA-MB-435
MDA-N = system: MDA-N
MOLT-4 = system: MOLT-4
Malme-3M = system: Malme-3M
NCI-H226 = system: NCI-H226
NCI-H23 = system: NCI-H23
NCI-H460 = system: NCI-H460
NCI-H522 = system: NCI-H522
NCI/ADR-RES = system: NCI/ADR-RES
OVCAR-3 = system: OVCAR-3
OVCAR-4 = system: OVCAR-4
OVCAR-5 = system: OVCAR-5
OVCAR-8 = system: OVCAR-8
PC-3 = system: PC-3
RPMI-8226 = system: RPMI-8226
RXF 393 = system: RXF 393
SF-268 = system: SF-268
SF-295 = system: SF-295
SF-539 = system: SF-539
SK-MEL-28 = system: SK-MEL-28
SK-MEL-2 = system: SK-MEL-2
SK-MEL-5 = system: SK-MEL-5
SN12C = system: SN12C
SNB-19 = system: SNB-19
SNB-75 = system: SNB-75
SR = system: SR
SW-620 = system: SW-620
T47D = system: T47D
TK-10 = system: TK-10
U-251 = system: U-251
UACC-257 = system: UACC-257
UACC-62 = system: UACC-62
UO-31 = system: UO-31
EKVX = system: EKVX
HOP-62 = system: HOP-62
LOX IMVI = system: LOX IMVI
MCF7 = system: MCF7
SK-OV-3 = system: SK-OV-3
Hs-578T = system: Hs-578T

Q: With `COP1(=S)OCC2CCC[C@@H]2O1` (some centres undefined) as the molecule, how does the GI50 (786-0) read?
A: > 100 µM (inactive)

Q: And the GI50 (A498)?
A: > 100 µM (inactive)

Q: What about the GI50 (A549) of the same molecule?
A: > 100 µM (inactive)

Q: What about the GI50 (ACHN) of the same molecule?
A: > 100 µM (inactive)

Q: And the GI50 (BT-549)?
A: > 100 µM (inactive)

Q: What about the GI50 (CAKI-1) of the same molecule?
A: > 100 µM (inactive)

Q: What about the GI50 (CCRF-CEM) of the same molecule?
A: > 100 µM (inactive)

Q: What about the GI50 (COLO 205) of the same molecule?
A: > 100 µM (inactive)

Q: What about the GI50 (DU-145) of the same molecule?
A: > 100 µM (inactive)

Q: What about the GI50 (HCC 2998) of the same molecule?
A: > 100 µM (inactive)

Q: And the GI50 (HCT-116)?
A: > 100 µM (inactive)

Q: And the GI50 (HCT-15)?
A: > 100 µM

Q: And the GI50 (HL-60)?
A: > 100 µM (inactive)

Q: And the GI50 (HOP-92)?
A: > 100 µM (inactive)

Q: And the GI50 (HT-29)?
A: > 100 µM (inactive)

Q: And the GI50 (IGROV-1)?
A: > 100 µM (inactive)

Q: What about the GI50 (K562) of the same molecule?
A: > 100 µM (inactive)

Q: What about the GI50 (KM12) of the same molecule?
A: > 100 µM (inactive)

Q: And the GI50 (M14)?
A: > 100 µM (inactive)

Q: What about the GI50 (MDA-MB-231) of the same molecule?
A: > 100 µM (inactive)

Q: What about the GI50 (MDA-MB-435) of the same molecule?
A: > 100 µM (inactive)

Q: And the GI50 (MDA-N)?
A: > 100 µM (inactive)

Q: And the GI50 (MOLT-4)?
A: > 100 µM (inactive)

Q: And the GI50 (Malme-3M)?
A: > 100 µM (inactive)

Q: What about the GI50 (NCI-H226) of the same molecule?
A: > 100 µM (inactive)

Q: And the GI50 (NCI-H23)?
A: > 100 µM (inactive)

Q: What about the GI50 (NCI-H460) of the same molecule?
A: > 100 µM (inactive)

Q: And the GI50 (NCI-H522)?
A: > 100 µM (inactive)

Q: And the GI50 (NCI/ADR-RES)?
A: > 100 µM (inactive)

Q: What about the GI50 (OVCAR-3) of the same molecule?
A: > 100 µM (inactive)

Q: And the GI50 (OVCAR-4)?
A: > 100 µM (inactive)

Q: And the GI50 (OVCAR-5)?
A: > 100 µM (inactive)

Q: And the GI50 (OVCAR-8)?
A: > 100 µM (inactive)

Q: What about the GI50 (PC-3) of the same molecule?
A: > 100 µM (inactive)

Q: And the GI50 (RPMI-8226)?
A: > 100 µM (inactive)

Q: And the GI50 (RXF 393)?
A: > 100 µM (inactive)

Q: What about the GI50 (SF-268) of the same molecule?
A: > 100 µM (inactive)

Q: And the GI50 (SF-295)?
A: > 100 µM (inactive)

Q: What about the GI50 (SF-539) of the same molecule?
A: > 100 µM (inactive)

Q: And the GI50 (SK-MEL-28)?
A: > 100 µM (inactive)

Q: And the GI50 (SK-MEL-2)?
A: > 100 µM (inactive)

Q: And the GI50 (SK-MEL-5)?
A: > 100 µM (inactive)

Q: And the GI50 (SN12C)?
A: > 100 µM (inactive)

Q: And the GI50 (SNB-19)?
A: > 100 µM (inactive)

Q: What about the GI50 (SNB-75) of the same molecule?
A: > 100 µM (inactive)

Q: And the GI50 (SR)?
A: > 100 µM (inactive)

Q: What about the GI50 (SW-620) of the same molecule?
A: > 100 µM (inactive)

Q: And the GI50 (T47D)?
A: > 100 µM (inactive)

Q: What about the GI50 (TK-10) of the same molecule?
A: > 100 µM (inactive)

Q: What about the GI50 (U-251) of the same molecule?
A: > 100 µM (inactive)

Q: And the GI50 (UACC-257)?
A: > 100 µM (inactive)

Q: And the GI50 (UACC-62)?
A: > 100 µM (inactive)

Q: And the GI50 (UO-31)?
A: > 100 µM (inactive)

Q: Which results are given for `CCOC(=O)C12CCC(=O)N1N(C)c1ncccc1N2` (centres undefined)?
A: GI50 (786-0): > 100 µM (inactive); GI50 (A498): > 100 µM (inactive); GI50 (A549): > 100 µM (inactive); GI50 (ACHN): > 100 µM (inactive); GI50 (BT-549): > 100 µM (inactive); GI50 (CAKI-1): > 100 µM (inactive); GI50 (CCRF-CEM): > 100 µM (inactive); GI50 (COLO 205): > 100 µM (inactive); GI50 (DU-145): > 100 µM (inactive); GI50 (EKVX): > 100 µM (inactive); GI50 (HCC 2998): 77.4 µM (inactive); GI50 (HCT-116): > 100 µM (inactive); GI50 (HCT-15): > 100 µM; GI50 (HOP-62): > 100 µM (inactive); GI50 (HT-29): > 100 µM (inactive); GI50 (IGROV-1): > 100 µM (inactive); GI50 (K562): > 100 µM (inactive); GI50 (KM12): > 100 µM (inactive); GI50 (LOX IMVI): > 100 µM (inactive); GI50 (M14): > 100 µM (inactive); GI50 (MCF7): > 100 µM (inactive); GI50 (MDA-MB-231): > 100 µM (inactive); GI50 (MDA-MB-435): > 100 µM (inactive); GI50 (MDA-N): > 100 µM (inactive); GI50 (MOLT-4): > 100 µM (inactive); GI50 (NCI-H226): > 100 µM (inactive); GI50 (NCI-H23): > 100 µM (inactive); GI50 (NCI-H460): > 100 µM (inactive); GI50 (NCI-H522): > 100 µM (inactive); GI50 (NCI/ADR-RES): > 100 µM (inactive); GI50 (OVCAR-3): > 100 µM (inactive); GI50 (OVCAR-4): > 100 µM (inactive); GI50 (OVCAR-5): > 100 µM (inactive); GI50 (OVCAR-8): > 100 µM (inactive); GI50 (RPMI-8226): > 100 µM (inactive); GI50 (RXF 393): > 100 µM (inactive); GI50 (SF-268): > 100 µM (inactive); GI50 (SF-295): > 100 µM (inactive); GI50 (SF-539): > 100 µM (inactive); GI50 (SK-MEL-28): > 100 µM (inactive); GI50 (SK-MEL-2): < 0.01 µM (active); GI50 (SK-MEL-5): > 100 µM (inactive); GI50 (SK-OV-3): > 100 µM (inactive); GI50 (SNB-19): > 100 µM (inactive); GI50 (SNB-75): 67.1 µM (inactive); GI50 (SR): > 100 µM (inactive); GI50 (SW-620): > 100 µM (inactive); GI50 (T47D): > 100 µM (inactive); GI50 (TK-10): > 100 µM (inactive); GI50 (U-251): > 100 µM (inactive); GI50 (UACC-257): > 100 µM (inactive); GI50 (UACC-62): > 100 µM (inactive); GI50 (UO-31): > 100 µM (inactive)

Q: What does the source list for `CO[C@H]1[C@@H](O)[C@@H](C)O[C@@H](O[C@H]2CC[C@@]3(C)[C@H](CC[C@@H]4[C@@H]3CC[C@]3(C)[C@@H](C5=CC(=O)OC5)[C@@H](OC(C)=O)C[C@]43O)C2)[C@@H]1O` [NERITALOSIDE]?
A: GI50 (786-0): 0.0176 µM (active); GI50 (A498): 0.281 µM (active); GI50 (A549): 0.0104 µM (active); GI50 (ACHN): 0.0188 µM (active); GI50 (BT-549): 0.0331 µM (active); GI50 (CAKI-1): 0.0208 µM (active); GI50 (CCRF-CEM): 0.029 µM (active); GI50 (COLO 205): 0.156 µM (active); GI50 (DU-145): 0.0176 µM (active); GI50 (EKVX): 0.0156 µM (active); GI50 (HCC 2998): 0.23 µM (active); GI50 (HCT-116): 0.0219 µM (active); GI50 (HCT-15): 0.0973 µM; GI50 (HL-60): 0.0566 µM (active); GI50 (HOP-62): 0.0253 µM (active); GI50 (HOP-92): 0.149 µM (active); GI50 (HT-29): 0.0461 µM (active); GI50 (Hs-578T): 0.0202 µM (active); GI50 (IGROV-1): 0.0371 µM (active); GI50 (K562): 0.141 µM (active); GI50 (KM12): 0.157 µM (active); GI50 (LOX IMVI): 0.0708 µM (active); GI50 (M14): 0.0904 µM (active); GI50 (MCF7): 0.16 µM (active); GI50 (MDA-MB-231): 0.198 µM (active); GI50 (MDA-MB-435): 0.124 µM (active); GI50 (MOLT-4): 0.0211 µM (active); GI50 (Malme-3M): 0.016 µM (active); GI50 (NCI-H226): 0.173 µM (active); GI50 (NCI-H23): 0.027 µM (active); GI50 (NCI-H460): 0.0165 µM (active); GI50 (NCI-H522): 0.0142 µM (active); GI50 (NCI/ADR-RES): 0.0486 µM (active); GI50 (OVCAR-3): 0.0229 µM (active); GI50 (OVCAR-4): 0.0601 µM (active); GI50 (OVCAR-5): 0.0914 µM (active); GI50 (OVCAR-8): 0.0723 µM (active); GI50 (PC-3): 0.0256 µM (active); GI50 (RPMI-8226): 0.17 µM (active); GI50 (RXF 393): 0.0164 µM (active); GI50 (SF-268): 0.024 µM (active); GI50 (SF-295): 0.0461 µM (active); GI50 (SF-539): 0.0248 µM (active); GI50 (SK-MEL-28): 0.291 µM (active); GI50 (SK-MEL-2): 0.129 µM (active); GI50 (SK-MEL-5): 0.0405 µM (active); GI50 (SK-OV-3): 0.0807 µM (active); GI50 (SN12C): 0.0152 µM (active); GI50 (SNB-19): 0.144 µM (active); GI50 (SNB-75): 0.112 µM (active); GI50 (SR): 0.0533 µM (active); GI50 (SW-620): 0.111 µM (active); GI50 (T47D): 0.162 µM (active); GI50 (TK-10): 0.0164 µM (active); GI50 (U-251): 0.0798 µM (active); GI50 (UACC-257): 0.1 µM (active); GI50 (UACC-62): 0.1 µM (active); GI50 (UO-31): 0.0177 µM (active)
